Source: article PMC6272684, “Synthesis, Antiproliferative and Antifungal Activities of 1,2,3-Triazole-Substituted Carnosic Acid and Carnosol Derivatives” (Molecules, 2015)

Columns and labels:
C. neoformans ATCC 32264 = test: Antifungal broth microdilution (CLSI M27-A3), growth inhibition; format: cell-based, Cryptococcus neoformans; conditions: for MIC50 (minimum concentration to inhibit 50% of fungal growth), C. neoformans: C. neoformans ATCC 32264
Summary of the method: (§1)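 Yeast inocula (1–5 × 10^3 CFU/mL) were tested by CLSI M27-A3 broth microdilution in RPMI-1640 at 250–3.9 μg∙mL^−1 (DMSO ≤1%) for 48 h at 30 °C in the dark. Growth was read at OD405, and % inhibition was calculated against growth and sterility controls in triplicate. MIC100 is total inhibition; MIC50 is 50% inhibition.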

[1] = test system: normal lung fibroblasts (MRC-5); test: Antiproliferative assay (MTT reduction, 3 days); format: cell-based, human; conditions: MRC-5 normal fibroblasts, >100 µM considered inactive; for IC50: read-out: IC50 ± SD, MRC-5
Protocol: (§2) The antiproliferative activity towards the following human cell lines was determined: normal lung fibroblasts (MRC-5), gastric epithelial adenocarcinoma (AGS), lung cancer (SK-MES-1) and bladder carcinoma (J82) cells.
(§3) All human cell lines used in this work were purchased from the American Type Culture Collection (ATCC, Manasas, VA, USA). […] All media were supplemented with 10% heat-inactivated FBS, 100 IU∙mL^−1 penicillin and 100 µg∙mL^−1 streptomycin. Cells were grown in a humidified incubator with 5% CO2 in air at 37 °C. For the antiproliferative assay, cells were plated at a density of 5 × 10^4 cells∙mL^−1. Cells were seeded in 96-well plates (100 µL∙well^−1). One day after seeding, cells were treated with medium containing the compounds at concentrations ranging from 0 up to 100 µM during 3 days. The compounds were dissolved in DMSO (1% final concentration) and complete medium. Untreated cells (medium containing 1% DMSO) were used as 100% viability controls. […] Each concentration was tested in sextuplicate and experiments were repeated 2 times. Cell viability was determined by means of the MTT reduction assay at the end of the incubation with the products. […] The software used was OriginPro 8.1 [30].

[2] = test system: lung cancer (SK-MES-1) cells; test: Antiproliferative assay (MTT reduction, 3 days); format: cell-based, human; conditions: >100 µM considered inactive, read-out: IC50 ± SD, SK-MES-1
Protocol: as §2, §3

C. albicans ATCC 10231 = test: Antifungal broth microdilution (CLSI M27-A3), growth inhibition; format: cell-based, Candida albicans; conditions: for MIC50 (minimum concentration to inhibit 50% of fungal growth), C. albicans: C. albicans ATCC 10231
Summary of the method: as §1

[3] = test system: gastric epithelial adenocarcinoma (AGS) cells; test: Antiproliferative assay (MTT reduction, 3 days); format: cell-based, human; conditions: >100 µM considered inactive; for IC50: read-out: IC50 ± SD, AGS
Protocol: as §2, with “cells. […] When comparing the pairs 3–4, 5–6 and 7–8 differing in one CH2 unit in the linker, the activity decreased with linker length.” for “cells.”
(§4) All human cell lines used in this work were purchased from the American Type Culture Collection (ATCC, Manasas, VA, USA). Normal lung MRC-5 fibroblasts (CCL-171), SK-MES-1 lung cancer cells (HTB-58) and J82 bladder carcinoma cells (HTB-1) were grown as monolayers in minimum essential Eagle medium (MEM) with Earles’s salts, 2 mM L-glutamine and 1.5 g∙L^−1 sodium bicarbonate. Gastric adenocarcinoma AGS cells (CRL-1739) were grown as monolayers in Ham F-12 medium containing 1 mM L-glutamine and 1.5 g∙L^−1 sodium bicarbonate. All media were supplemented with 10% heat-inactivated FBS, 100 IU∙mL^−1 penicillin and 100 µg∙mL^−1 streptomycin. Cells were grown in a humidified incubator with 5% CO2 in air at 37 °C. For the antiproliferative assay, cells were plated at a density of 5 × 10^4 cells∙mL^−1. Cells were seeded in 96-well plates (100 µL∙well^−1). One day after seeding, cells were treated with medium containing the compounds at concentrations ranging from 0 up to 100 µM during 3 days. The compounds were dissolved in DMSO (1% final concentration) and complete medium. Untreated cells (medium containing 1% DMSO) were used as 100% viability controls. […] Each concentration was tested in sextuplicate and experiments were repeated 2 times. Cell viability was determined by means of the MTT reduction assay at the end of the incubation with the products. The results were transformed to percentage of controls and the IC50 value was obtained adjusting the dose-response curve to a sigmoidal model. The software used was OriginPro 8.1 [30].

[4] = test system: bladder carcinoma (J82) cells; test: Antiproliferative assay (MTT reduction, 3 days); format: cell-based, human; conditions: J82 cells, 3 days, MTT; >100 µM considered inactive; read-out: IC50 ± SD, J82
Protocol: as §2, with “cells. […] When comparing the pairs 3–4, 5–6 and 7–8 differing in one CH2 unit in the linker, the activity decreased with linker length.” for “cells.”
as §4

MIC50 (minimum concentration to inhibit 50% of fungal growth), C. neoformans (C. neoformans ATCC 32264) [µg/mL] | IC50 [2] [µM] | MIC50 (minimum concentration to inhibit 50% of fungal growth), C. albicans (C. albicans ATCC 10231) [µg/mL] | IC50 [3] [µM] | IC50 [4] [µM] | Structure (SMILES) | Inhibition percentage against C. neoformans ATCC 32264 (C. neoformans ATCC 32264; 3.9 μg∙mL^−1, 48 h) [%] | Inhibition percentage against C. neoformans ATCC 32264 (C. neoformans ATCC 32264; 7.8 μg∙mL^−1, 48 h) [%] | Inhibition percentage against C. neoformans ATCC 32264 (C. neoformans ATCC 32264; 15.6 μg∙mL^−1, 48 h) [%] | Inhibition percentage against C. neoformans ATCC 32264 (C. neoformans ATCC 32264; 31.2 μg∙mL^−1, 48 h) [%] | Inhibition percentage against C. neoformans ATCC 32264 (C. neoformans ATCC 32264; 62.5 μg∙mL^−1, 48 h) [%] | Inhibition percentage against C. neoformans ATCC 32264 (C. neoformans ATCC 32264; 125 μg∙mL^−1, 48 h) [%] | Inhibition percentage against C. neoformans ATCC 32264 (C. neoformans ATCC 32264; 250 μg∙mL^−1, 48 h) [%] | IC50 [1] [µM] | Inhibition percentage against C. albicans ATCC 10231 (C. albicans ATCC 10231; 3.9 μg∙mL^−1, 48 h) [%] | Inhibition percentage against C. albicans ATCC 10231 (C. albicans ATCC 10231; 7.8 μg∙mL^−1, 48 h) [%] | Inhibition percentage against C. albicans ATCC 10231 (C. albicans ATCC 10231; 15.6 μg∙mL^−1, 48 h) [%] | Inhibition percentage against C. albicans ATCC 10231 (C. albicans ATCC 10231; 62.5 μg∙mL^−1, 48 h) [%] | Inhibition percentage against C. albicans ATCC 10231 (C. albicans ATCC 10231; 125 μg∙mL^−1, 48 h) [%] | Inhibition percentage against C. albicans ATCC 10231 (C. albicans ATCC 10231; 250 μg∙mL^−1, 48 h) [%] | Inhibition percentage against C. albicans ATCC 10231 (C. albicans ATCC 10231; 31. μg∙mL^−1, 48 h) [%] | further results
250 | 76 ± 5.1 | 250 | 41 ± 2.1 | 80.1 ± 4.3 | CC(C)c1cc2c3c(c1OC(=O)CCCc1cn(CSc4ccccc4)nn1)OC(=O)C31CCCC(C)(C)C1CC2 (centres unmarked) [Compound 2, 12-O-(4-(((1-phenylthio)methyl)-1H-1,2,3-triazol-4-yl)-butanoyloxy)-11,20-epoxyabieta-8,11,13-trien-20-one] | 1.5 ± 0.1 | 1.9 ± 0.5 | 10.3 ± 1.0 | 11.8 ± 0.3 | 20.7 ± 0.6 | 22.1 ± 1.5 | 74.8 ± 2.8 | 46.9 ± 3.4 | 1.5 ± 0.1 | 1.9 ± 0.5 | 5.2 ± 0.6 | 15.7 ± 1.8 | 27.9 ± 1.8 | 50.7 ± 0.3 | 8.9 ± 1.8 | –
250 | > 100 | 250 | > 100 | > 100 | CC(C)c1cc2c3c(c1OC(=O)CCCc1cn(Cc4ccccc4)nn1)OC(=O)C31CCCC(C)(C)C1CC2 (centres unmarked) [Compound 4, 12-O-(4-(1-benzyl-1H-1,2,3-triazol-4-yl)-butanoyloxy)-11,20-epoxyabieta-8,11,13-trien-20-one] | 0.0 | 0.0 | 2.3 ± 1.0 | 8.5 ± 1.0 | 9.8 ± 1.1 | 17.8 ± 1.4 | 53.4 ± 2.1 | > 100 | 3.7 ± 0.4 | 4.1 ± 1.7 | 9.5 ± 1.3 | 16.4 ± 2.3 | 28.2 ± 2.1 | 51.6 ± 0.1 | 10.2 ± 1.2 | IC50 ± SD, MRC-5 [1]: inactive; IC50 ± SD, AGS [3]: inactive
>250 | 73 ± 3.9 | >250 | 48.9 ± 3.9 | 74.1 ± 3.9 | CC(C)c1cc2c3c(c1OC(=O)CCc1cn(Cc4ccccc4)nn1)OC(=O)[C@@]31CCCC(C)(C)[C@@H]1CC2 [Compound 3, 12-O-(3-(1-benzyl-1H-1,2,3-triazol-4-yl)-propanoyloxy)-11,20-epoxyabieta-8,11,13-trien-20-one] | 4.9 ± 0.5 | 9.0 ± 0.3 | 9.7 ± 0.1 | 14.3 ± 2.0 | 16.7 ± 0.5 | 18.4 ± 0.2 | 26.7 ± 1.5 | 43.4 ± 3 | 5.7 ± 0.8 | 8.1 ± 0.8 | 9.1 ± 1.5 | 14.3 ± 2.0 | 20.2 ± 2.2 | 20.3 ± 3.9 | 11.1 ± 0.4 | IC50 ± SD, MRC-5 [1]: active; Antifungal activity against C. albicans (in words) (C. albicans ATCC 10231; at the assayed concentrations (250–3.9 μg∙mL^−1)): devoid of activity; IC50 ± SD, AGS [3]: active
